The results in this text go back to patent US5491151A, “Antitumor treatment method” (Kabushiki Kaisha Hayashibara Seibutsu Kagaku Kenkyujo, priority 1989, dated 1996).

One series concerns macrophage. The series can be described thus: Activation of macrophage by cyanine dye (adherent ascites cells of treated mice cultured with Meth A ascitic tumor cells, 3H-thymidine incorporation). The following applies: 50 ng/0.2 ml/animal intraperitoneal to mice, cells collected two days later. In kind it is cell-based, BALB/c mice. The protocol:
Two days after the administration, the ascites of the mice were extracted, and the cells which adhered onto plastic Petri dish were collected.
Control group was intraperitoneally administered with 0.2 ml saline.
Thereafter, the incorporation of ^3 H-thymidine in the tumor cell was determined by conventional method, and the growth inhibitory rate for tumor (%) was calculated with the following equation.
For orientation: Dividing cells build labelled thymidine or BrdU into new DNA.

A further series relates to ddy mice. The series is described as follows: Acute toxicity (LD50). In kind it is in vivo. As to conditions: 7 days. The protocol:
Either of Compounds No.1-8 in Table I was dissolved or suspended in saline containing 5% gum arabic, and a group of ddy mice, about 10-20 g each, received an intraperitoneal or oral administration of the resultant mixture occasionally through a stomach tube, followed by monitoring and counting dead mice for an additional 7 days to determine respective LD50 value in accordance with the Van der Waerden's method.

As for `CCN1C=CC(=CC=C(C=Cc2cc[n+](CC)c3ccccc23)c2cc[n+](CC)c3ccccc23)c2ccccc21` [compound 5], in the series with macrophage, the “Growth inhibitory rate (%)” value was found to be 27.5%. Further, the LD50 in the series with ddy mice (intraperitoneal administration, 10080 min) is on record as 28 mg/kg body weight; in the series on ddy mice (oral administration) it was at least 4.0 g/kg body weight.
